These results are taken from ChEMBL document CHEMBL2417538, “Antithrombotic effects of LB30870, a potent, orally active, selective and direct thrombin inhibitor, and pharmacokinetics of its prodrug” (Bioorg Med Chem Lett, 2013).

Values after ≈ are worked out from the molar mass of the structure shown.

Data set [1] in a line: Aqueous solubility of the compound at pH 4.73. The class given is physicochemical. The settings on record: aqueous solution.
Data set [2] in a line: Aqueous solubility of the compound at pH 6.96. The class given is physicochemical. The settings on record: aqueous solution.
Data set [3] is described as follows: Aqueous solubility of the compound at pH 3.04. The class given is physicochemical. The settings on record: aqueous solution.
Data set [4] is described as follows: Distribution coefficient, log D of the compound at pH 7 by potentiometric titration. The class given is physicochemical. Conditions: octanol/water.
Data set [5] can be described thus: Dissociation constant, pKa of the compound by potentiometric titration. Type of data set: physicochemical.
Data set [6] deals with Canis familiaris. Briefly: Oral bioavailability in Beagle dog at 10 mg/kg assessed as LB30870. The settings on record: in vivo. Type of data set: ADME, organism-based, Canis lupus familiaris.
The test system of data set [7] is Canis familiaris. In words: AUC in Beagle dog at 10 mg/kg, po assessed as LB30870. Type of data set: ADME, organism-based, Canis lupus familiaris, Plasma. Also noted: dose 10 mg/kg, route oral. The settings on record: in vivo.
The subject of data set [8] is Canis familiaris. Briefly: Cmax in Beagle dog at 10 mg/kg, po assessed as LB30887. The class given is ADME, organism-based, Canis lupus familiaris. The arrangement: dose 10 mg/kg, route oral. The settings on record: in vivo.
In data set [9] the test system is Canis familiaris. In words: Cmax in Beagle dog at 10 mg/kg, po assessed as LB30870. Type of data set: ADME, organism-based, Canis lupus familiaris. The arrangement: dose 10 mg/kg, route oral. Conditions: in vivo.
The subject of data set [10] is Rattus norvegicus. Briefly: Oral bioavailability in Sprague-Dawley rat at 30 mg/kg assessed as LB30870. The settings on record: in vivo. Type of data set: ADME, organism-based.
Data set [11] deals with Rattus norvegicus. In words: AUC in Sprague-Dawley rat at 30 mg/kg, po assessed as LB30870. The class given is ADME, organism-based, Plasma. The arrangement: dose 30 mg/kg, route oral. The settings on record: in vivo.
In data set [12] the test system is Rattus norvegicus. In words: AUC in Sprague-Dawley rat at 30 mg/kg, po assessed as LB30887. Type of data set: ADME, organism-based, Plasma. Also noted: dose 30 mg/kg, route oral. The settings on record: in vivo.
The subject of data set [13] is Rattus norvegicus. In words: Cmax in Sprague-Dawley rat at 30 mg/kg, po assessed as LB30870. The settings on record: in vivo. The arrangement: dose 30 mg/kg, route oral. The class given is ADME, organism-based.
For data set [14], the system named is Rattus norvegicus. In words: Cmax in Sprague-Dawley rat at 30 mg/kg, po assessed as LB30887. Type of data set: ADME, organism-based. Also noted: dose 30 mg/kg, route oral. Conditions: in vivo.
The subject of data set [15] is Canis familiaris. In words: AUC in Beagle dog at 10 mg/kg, po assessed as LB30887. The settings on record: in vivo. Type of data set: ADME, organism-based, Canis lupus familiaris, Plasma. The arrangement: dose 10 mg/kg, route oral.
For data set [16], the target named is Plasminogen (Homo sapiens, UniProt P00747). Briefly: Inhibition of human plasmin.
In data set [17] the target is Tissue-type plasminogen activator (Homo sapiens, UniProt P00750). Briefly: Inhibition of human t-PA.
In data set [18] the target is Trypsin (Homo sapiens, UniProt P07477+P07478+P35030). In words: Inhibition of human trypsin. The class given is protein assay.
In data set [19] the target is Coagulation factor X (Homo sapiens, UniProt P00742). In words: Inhibition of human factor 10a.
The test system of data set [20] is Rattus norvegicus. Briefly: Anticoagulant activity in Sprague-Dawley rat deep vein thrombosis model assessed as reduction in wet clot weight at 35 ug/kg, iv administered as infusion. The class given is functional.
Data set [21] is described as follows: Plasma protein binding in human at 1 ug/ml by ultra-filtration method. Type of data set: ADME, cell-free. Conditions: read-out: PPB (converted).
Data set [22] in a line: Plasma protein binding in rat at 1 ug/ml by ultra-filtration method. The class given is ADME, cell-free. Conditions: read-out: PPB (converted).
For data set [23], the system named is Rattus norvegicus. Briefly: Anticoagulant activity in Sprague-Dawley rat deep vein thrombosis model assessed as reduction in wet clot weight administered as iv bolus followed by infusion relative to control. Type of data set: functional, organism-based.
For data set [24], the system named is Rattus norvegicus. Briefly: Anticoagulant activity in Sprague-Dawley rat deep vein thrombosis model assessed as prothrombin time change at 0.125 mg/kg, iv administered as bolus and 5 ug/kg/min administered as infusion relative to control. Type of data set: functional.
Data set [25] relates to Rattus norvegicus. In words: Anticoagulant activity in Sprague-Dawley rat deep vein thrombosis model assessed as prothrombin time change at […], iv administered as bolus and 2.5 ug/kg/min administered as infusion relative to control. Type of data set: functional.
For data set [26], the system named is Rattus norvegicus. Briefly: Anticoagulant activity in Sprague-Dawley rat deep vein thrombosis model assessed as prothrombin time change at 0.044 mg/kg, iv administered as bolus and 1.75 ug/kg/min administered as infusion relative to control. The class given is functional.
Data set [27] deals with Rattus norvegicus. In words: Anticoagulant activity in Sprague-Dawley rat deep vein thrombosis model assessed as prothrombin time change at 0.25 mg/kg, iv administered as bolus and 10 ug/kg/min administered as infusion relative to control. The class given is functional.
Data set [28] has as its system Rattus norvegicus. In words: Anticoagulant activity in Sprague-Dawley rat deep vein thrombosis model assessed as prothrombin time change at 0.025 mg/kg, iv administered as bolus and 1 ug/kg/min administered as infusion relative to control. The class given is functional.
Data set [29] deals with Rattus norvegicus. Briefly: Anticoagulant activity in Sprague-Dawley rat deep vein thrombosis model assessed as activated partial thromboplastin time change at 0.125 mg/kg, iv administered as bolus and 5 ug/kg/min administered as infusion relative to control. The class given is functional.
Data set [30] deals with Rattus norvegicus. Briefly: Anticoagulant activity in Sprague-Dawley rat deep vein thrombosis model assessed as activated partial thromboplastin time change at […], iv administered as bolus and 2.5 ug/kg/min administered as infusion relative to control. The class given is functional.
Data set [31] deals with Rattus norvegicus. Briefly: Anticoagulant activity in Sprague-Dawley rat deep vein thrombosis model assessed as activated partial thromboplastin time change at 0.044 mg/kg, iv administered as bolus and 1.75 ug/kg/min administered as infusion relative to control. The class given is functional.
Data set [32] relates to Rattus norvegicus. In words: Anticoagulant activity in Sprague-Dawley rat deep vein thrombosis model assessed as activated partial thromboplastin time change at 0.025 mg/kg, iv administered as bolus and 1 ug/kg/min administered as infusion relative to control. The class given is functional.
Data set [33] deals with Rattus norvegicus. In words: Anticoagulant activity in Sprague-Dawley rat deep vein thrombosis model assessed as activated partial thromboplastin time change at 0.25 mg/kg, iv administered as bolus and 10 ug/kg/min administered as infusion relative to control. The class given is functional.
The test system of data set [34] is Rattus norvegicus. Briefly: Anticoagulant activity in Sprague-Dawley rat deep vein thrombosis model assessed as wet clot weight at 0.125 mg/kg, iv administered as bolus and 5 ug/kg/min administered as infusion (reference value: 83 +/- 5.1 mg). Type of data set: functional.
For data set [35], the system named is Rattus norvegicus. In words: Anticoagulant activity in Sprague-Dawley rat deep vein thrombosis model assessed as wet clot weight at […], iv administered as bolus and 2.5 ug/kg/min administered as infusion (reference value: 83 +/- 5.1 mg). The class given is functional.
For data set [36], the system named is Rattus norvegicus. Briefly: Anticoagulant activity in Sprague-Dawley rat deep vein thrombosis model assessed as wet clot weight at 0.044 mg/kg, iv administered as bolus and 1.75 ug/kg/min administered as infusion (reference value: 83 +/- 5.1 mg). The class given is functional.
Data set [37] can be described thus: Aqueous solubility of the compound at pH 9.0. Type of data set: physicochemical. Conditions: aqueous solution.
Data set [38] is described as follows: Aqueous solubility of the compound at pH 6.3. Type of data set: physicochemical. Conditions: aqueous solution.
Data set [39] in a line: Aqueous solubility of the compound at pH 7.4. Type of data set: physicochemical. Conditions: aqueous solution.

Sequence of Tissue-type plasminogen activator (P00750 whole entry): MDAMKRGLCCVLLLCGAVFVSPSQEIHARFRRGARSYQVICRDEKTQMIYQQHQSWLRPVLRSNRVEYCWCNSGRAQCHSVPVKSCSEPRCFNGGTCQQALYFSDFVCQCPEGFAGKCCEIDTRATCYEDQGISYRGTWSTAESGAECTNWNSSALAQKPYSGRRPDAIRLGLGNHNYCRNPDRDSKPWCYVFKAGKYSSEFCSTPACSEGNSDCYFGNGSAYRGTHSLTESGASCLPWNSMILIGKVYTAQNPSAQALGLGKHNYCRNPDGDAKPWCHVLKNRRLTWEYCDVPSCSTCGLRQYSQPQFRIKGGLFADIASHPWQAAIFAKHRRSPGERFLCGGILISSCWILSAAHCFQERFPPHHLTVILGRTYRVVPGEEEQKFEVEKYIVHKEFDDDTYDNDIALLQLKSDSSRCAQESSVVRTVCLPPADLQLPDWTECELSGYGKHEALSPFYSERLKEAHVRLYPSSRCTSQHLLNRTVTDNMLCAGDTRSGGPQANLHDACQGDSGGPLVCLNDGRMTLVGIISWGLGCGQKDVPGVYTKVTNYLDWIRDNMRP
Sequence of Plasminogen (P00747 97-580 limits assumed): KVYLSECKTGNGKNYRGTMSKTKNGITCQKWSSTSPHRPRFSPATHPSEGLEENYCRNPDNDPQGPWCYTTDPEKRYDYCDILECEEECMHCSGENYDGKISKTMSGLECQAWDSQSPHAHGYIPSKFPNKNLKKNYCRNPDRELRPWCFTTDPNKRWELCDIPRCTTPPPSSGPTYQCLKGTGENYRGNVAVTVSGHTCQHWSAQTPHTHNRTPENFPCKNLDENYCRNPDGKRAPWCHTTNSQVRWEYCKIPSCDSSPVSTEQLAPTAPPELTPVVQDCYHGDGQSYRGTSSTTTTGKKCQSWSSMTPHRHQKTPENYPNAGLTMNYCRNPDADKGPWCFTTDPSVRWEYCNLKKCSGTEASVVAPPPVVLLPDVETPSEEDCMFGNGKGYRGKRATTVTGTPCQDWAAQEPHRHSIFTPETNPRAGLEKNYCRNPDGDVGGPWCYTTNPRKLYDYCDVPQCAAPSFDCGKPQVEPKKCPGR
Sequence of Plasminogen (P00747 581-810 limits assumed): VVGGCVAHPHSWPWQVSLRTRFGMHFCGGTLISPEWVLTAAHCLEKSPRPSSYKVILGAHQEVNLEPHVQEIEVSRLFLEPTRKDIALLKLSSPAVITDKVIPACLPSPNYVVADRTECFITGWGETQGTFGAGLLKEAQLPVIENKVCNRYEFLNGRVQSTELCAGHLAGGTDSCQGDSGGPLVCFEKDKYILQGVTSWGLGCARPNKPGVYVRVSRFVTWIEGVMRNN
Sequence of Coagulation factor X (P00742 41-179 limits assumed): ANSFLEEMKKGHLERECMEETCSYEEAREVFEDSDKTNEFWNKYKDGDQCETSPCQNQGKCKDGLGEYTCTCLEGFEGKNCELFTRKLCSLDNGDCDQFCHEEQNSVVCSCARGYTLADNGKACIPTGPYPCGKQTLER
Sequence of Coagulation factor X (P00742 235-488 limits assumed): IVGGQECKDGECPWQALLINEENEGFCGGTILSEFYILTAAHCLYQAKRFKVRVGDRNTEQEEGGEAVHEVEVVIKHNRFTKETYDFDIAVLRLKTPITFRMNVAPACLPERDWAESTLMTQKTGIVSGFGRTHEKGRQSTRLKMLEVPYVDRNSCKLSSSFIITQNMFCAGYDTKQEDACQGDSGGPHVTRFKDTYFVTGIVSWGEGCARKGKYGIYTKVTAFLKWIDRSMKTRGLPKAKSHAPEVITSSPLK

On to `CCOC(=O)CN[C@H](C(=O)N1CCC[C@H]1C(=O)NCc1ccc(/C(N)=N/O)s1)C(c1ccccc1)c1ccccc1`, for which the solubility in data set [1] is 10 µg/mL (≈ 17.3 µM); in [2], < 10 µg/mL; in [3] it was 550 µg/mL (≈ 952 µM). The logD in [4] was determined as 1.74. For the same molecule, in data set [5], the pKa is 3.98. The F in data set [6] is 35%; in [10] it was 13%. For the same molecule, the AUC was 491 µg·min/mL in data set [7], 38 µg·min/mL in data set [11], 203 µg·min/mL in data set [12] and 100 µg·min/mL in data set [15]. Further, the Cmax in data set [8] was found to be 2100 ng/mL; in data set [9] it was 3700 ng/mL; in data set [13], 440 ng/mL; in data set [14], 1740 ng/mL.
Regarding `CCOC(=O)CN[C@@H](C(=O)N1CC[C@H]1C(=O)NCc1ccc(/C(N)=N\O)cc1)C1CCCCC1` [XIMELAGATRAN], the logD in [4] was found to be 0.41. The pKa in [5] stood at 4.73.
Turning to `CC1CNc2c(cccc2S(=O)(=O)N[C@@H](CCCNC(=N)N)C(=O)N2CC[C@@H](C)C[C@@H]2C(=O)O)C1` (stereo partly specified) [ARGATROBAN], the Ki in data set [16] was 257 µM; in data set [17] it was 87.8 µM; in data set [18] it was 1.99 µM; in [19], 53 µM.
For `N=C(N)c1ccc(CNC(=O)[C@@H]2CCN2C(=O)[C@H](NCC(=O)O)C2CCCCC2)cc1`, in data set [20], the ED50 turned out to be 1.4 µg/kg/min. In addition, the results for the fraction unbound at 1 ug/ml in data set [21] and in data set [22] were 0.847 and 0.9, respectively. The Activity entry is “Dose-dependent effect” in data set [23], 3.6 mg in [34], 15.9 mg in [35] and 25.6 mg in data set [36]. Further, the “fold change (FC)” value in [24] came out at 2.72; in data set [25] it was 1.46; in [26] it was 1.42; in data set [27], 3.66; in data set [28] it was 1.13; in [29], 3.95. Also, the “fold change (FC)” value turned out to be 1.83 in data set [30], 1.98 in [31], 1.67 in [32] and 6.05 in data set [33]. The inhibitory constant (Ki) is 1.8 µM in data set [16], 1.51 µM in [17], 0.0043 µM in [18] and 3.68 µM in data set [19].
`CCCCCCOC(=O)NC(=N)c1ccc(NCc2nc3cc(C(=O)N(CCC(=O)OCC)c4ccccn4)ccc3n2C)cc1` [DABIGATRAN ETEXILATE]: the solubility in data set [37] was 0.3 µg/mL (≈ 0.478 µM); in data set [38] it was 2.3 µg/mL (≈ 3.66 µM); in data set [39], 0.4 µg/mL (≈ 0.637 µM). The molecule further returned a logD in data set [4] of 3.7.
